Where two headings read alike, the source gives them in different places.
What was measured:
[1] = system: Wnt/β-catenin transcription; assay: Wnt/β-catenin transcription TOPFlash reporter assay; format: cell-based; conditions: Wnt TopFlash IC50 over TMEM16A eYFP IC50
[2] = system: Wnt/β-catenin transcription; conditions: ref Mook et al. (2015); read-out: Mook et al. Wnt/β-catenin TopFlash (IC50); cited from earlier work
hTMEM16A (abc) = target: T1, hTMEM16A (abc) (Homo sapiens, UniProt Q5XXA6, DEL476-501); assay: medchem TMEM16A halide-sensitive YFP assay, 22-point dose-response; format: cell-based; design: expressed in transfected cells; conditions: iodide as permeant anion
T1 sequence (Q5XXA6 with tags, fused parts or gaps isoform Q5XXA6-5 DEL539-564): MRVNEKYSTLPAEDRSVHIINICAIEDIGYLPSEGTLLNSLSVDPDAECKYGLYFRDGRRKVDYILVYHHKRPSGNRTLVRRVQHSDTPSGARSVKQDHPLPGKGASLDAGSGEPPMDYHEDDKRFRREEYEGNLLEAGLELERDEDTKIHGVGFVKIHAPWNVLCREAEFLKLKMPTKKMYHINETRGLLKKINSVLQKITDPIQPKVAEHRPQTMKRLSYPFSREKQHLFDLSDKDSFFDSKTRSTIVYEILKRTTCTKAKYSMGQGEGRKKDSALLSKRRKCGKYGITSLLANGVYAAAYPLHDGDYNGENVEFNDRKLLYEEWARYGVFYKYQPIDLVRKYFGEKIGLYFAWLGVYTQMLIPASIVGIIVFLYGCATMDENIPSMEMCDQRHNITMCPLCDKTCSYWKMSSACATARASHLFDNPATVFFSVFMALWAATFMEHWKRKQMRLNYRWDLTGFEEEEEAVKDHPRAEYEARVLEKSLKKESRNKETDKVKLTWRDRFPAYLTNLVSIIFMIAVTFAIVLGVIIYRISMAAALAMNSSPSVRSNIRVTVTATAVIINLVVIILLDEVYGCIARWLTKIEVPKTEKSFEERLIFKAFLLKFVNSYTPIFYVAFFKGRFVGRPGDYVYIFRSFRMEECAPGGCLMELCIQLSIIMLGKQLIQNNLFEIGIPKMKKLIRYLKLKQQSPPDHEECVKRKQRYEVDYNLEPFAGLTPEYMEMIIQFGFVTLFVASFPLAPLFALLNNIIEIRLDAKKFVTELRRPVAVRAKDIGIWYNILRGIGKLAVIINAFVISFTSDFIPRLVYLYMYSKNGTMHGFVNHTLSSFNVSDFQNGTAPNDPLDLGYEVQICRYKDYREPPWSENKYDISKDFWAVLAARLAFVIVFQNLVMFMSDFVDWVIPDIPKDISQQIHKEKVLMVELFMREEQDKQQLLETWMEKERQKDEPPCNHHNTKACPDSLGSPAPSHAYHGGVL
Procedure: The TMEM16A HEK293T eYFP (H149Q, I153L) stable cell line for medchem support was generated by transfecting 10 μg of linearized hTMEM16A(abc) DNA constructs into HEK293T eYFP (H149Q,I153L) stable cells. The transfected cells were cultured under 200 μg/ml of hygromycin B selection for 20 days and the stable pool was single cell seeded in 96 well plate and duplicated plate were made after single cell clones were formed. YFP function assay were performed on duplicated plate and clones producing higher changes in fluorescence from the YFP assay were chosen for further expansion to form a stable cell line.
Plates were incubated for 24 h at 37°C with 5% CO2. On the assay day, medium was removed and replaced with 20 μl/well of assay buffer (Hank’s Balanced Salt Solution with 10 mM HEPES pH 7.4), 10 μl/well of 40x diluted compounds was added to assay plate and it was incubated at room temperature for 30 min, after which baseline fluorescence was read in the FLIPR instrument for 10 s. Then, 5 μl/well of a 3x trigger solution (24 mM iodide, 3 μM ionomycin in assay buffer) was added and the fluorescence kinetic trace was recorded for 2 min.

human bronchial rings = assay: Wire myograph bronchodilation of histamine pre-contracted human bronchial rings (Biopta)
Excerpt: Details of bronchodilator studies shown in Figure 5H, 6 and Supplementary Figure 40 are provided below as part of the end assay report on Study CUR011 by Lee Christie (Biopta). Donors with any of the following conditions were excluded from the study: asthma, COPD, emphysema, lung cancer, cystic fibrosis, pulmonary fibrosis, pulmonary hypertension, pneumonia. Donors were also excluded if they had smoked in the past 12 months. Non-transplantable lung tissue was acquired from organ donors post mortem. Any macroscopically diseased/necrotic tissue was rejected. […] Human airway rings were set up under isometric conditions on a wire myograph in order to examine the influence of the test articles on bronchodilation. In order to assess tissue viability, the airways were challenged with carbachol (10 μM) and then isoprenaline (10 μM) to assess their constriction and relaxation responses, respectively. […] Viable airways were pre-constricted with histamine (10 μM), then exposed to one of the following cumulative concentration response curves (CCRCs): positive control, vehicle (water, volume matched to positive control), test article, vehicle (DMSO concentration matched to test articles). At the end of each CCRC, theophylline (2.2 mM) was added to induce maximal relaxation of the tissue. […] Airways were re-tensioned to 1.0 – 1.5 g if the tension had dropped below 1.0 g during the first 30 min of equilibration. (b) Airways were exposed to carbachol (bath concentration 10 μM) in order to measure their contractile responses and then isoprenaline (10 μM) in order to assess their relaxation. Airways were washed out and allowed to return to baseline. (c) Airways were pre-constricted with histamine (10 μM) before conducting a CCRC to the test article, the positive control (isoprenaline), test article vehicle or positive control vehicle.

human CFTR = target: T2, human CFTR (Homo sapiens, UniProt P13569); assay: IonWorks Barracuda electrophysiology, CFTR chloride current in CHO cells; format: cell-based; conditions: 10 µM compound, CHO CFTR
T2 construct: host or cells: CHO
Excerpt: HEK293 cells stably expressing the human TMEM16A (abc) variant and CHO cells expressing the human CFTR gene were from ChanTest. The IonWorks Barracuda (IWB) procedure and data provided are from outsourced studies performed at ChanTest (Charles River Discovery, Cleveland, OH, United States) who were blinded as to the identity of the test articles or compounds provided by Amgen.
For measuring compound effects on CFTR chloride currents, compounds were serially diluted in HEPES-buffered physiological saline to 2X final concentration allowing for an 8-point dose-response analysis. Test article concentrations were applied to naïve cells (n = 4, where n = the number of replicate wells/concentration) via steel needles, where each application will consist of addition of 20 μl of 2X concentrated test article solution to a final 40 μl volume in the extracellular well of the Population Patch ClampTM (PPC) planar electrode. After mixing (three times), duration of exposure to compound is at least 5 min. Final solutions contain 0.3% DMSO. […] The current is measured using a pulse pattern consisting of a voltage step to +60 mV, 100 ms duration; voltage ramp from +60 to −120 mV, 1000 ms; step to −120 mV, 200 ms; and step to 0 mV, 200 ms; from holding potential, −30 mV. Current amplitudes were measured at the voltage step to 0 mV. The recording procedure was as follows: extracellular buffer is loaded into the PPC plate wells (11 μl per well). Cell suspension was pipetted into the wells (9 μl per well) of the PPC planar electrode. After establishment of a whole-cell configuration via amphotericin patch perforation similar to that described earlier, membrane currents were recorded using the patch clamp amplifier in the IonWorks^TM Barracuda system. Two recordings (scans) were then performed, one scan before and a second scan 5 min after test article (TA) application. […] Data acquisition and analyses were performed using the IonWorks Barracuda^TM system operation software (version 2.0.2). The decrease in current amplitude after test article application was used to calculate the percent block relative to control. […] Inhibition effect was calculated as: % Inhibition = (1 – ITA/IBaseline) × 100%, where IBaseline and ITA were the currents measured in control (before addition of a test article) and in the presence of a test article, respectively.

TMEM16A (acd) = target: T3, TMEM16A (acd) (Homo sapiens, UniProt Q5XXA6); assay: QPatch whole-cell electrophysiology, HEK293 TMEM16A (acd); format: cell-based; conditions: supplement; 170 nM free intracellular calcium; read-out: IC50 for blocking the TMEM16A outward current, QPatch
T3 sequence (Q5XXA6 1-986): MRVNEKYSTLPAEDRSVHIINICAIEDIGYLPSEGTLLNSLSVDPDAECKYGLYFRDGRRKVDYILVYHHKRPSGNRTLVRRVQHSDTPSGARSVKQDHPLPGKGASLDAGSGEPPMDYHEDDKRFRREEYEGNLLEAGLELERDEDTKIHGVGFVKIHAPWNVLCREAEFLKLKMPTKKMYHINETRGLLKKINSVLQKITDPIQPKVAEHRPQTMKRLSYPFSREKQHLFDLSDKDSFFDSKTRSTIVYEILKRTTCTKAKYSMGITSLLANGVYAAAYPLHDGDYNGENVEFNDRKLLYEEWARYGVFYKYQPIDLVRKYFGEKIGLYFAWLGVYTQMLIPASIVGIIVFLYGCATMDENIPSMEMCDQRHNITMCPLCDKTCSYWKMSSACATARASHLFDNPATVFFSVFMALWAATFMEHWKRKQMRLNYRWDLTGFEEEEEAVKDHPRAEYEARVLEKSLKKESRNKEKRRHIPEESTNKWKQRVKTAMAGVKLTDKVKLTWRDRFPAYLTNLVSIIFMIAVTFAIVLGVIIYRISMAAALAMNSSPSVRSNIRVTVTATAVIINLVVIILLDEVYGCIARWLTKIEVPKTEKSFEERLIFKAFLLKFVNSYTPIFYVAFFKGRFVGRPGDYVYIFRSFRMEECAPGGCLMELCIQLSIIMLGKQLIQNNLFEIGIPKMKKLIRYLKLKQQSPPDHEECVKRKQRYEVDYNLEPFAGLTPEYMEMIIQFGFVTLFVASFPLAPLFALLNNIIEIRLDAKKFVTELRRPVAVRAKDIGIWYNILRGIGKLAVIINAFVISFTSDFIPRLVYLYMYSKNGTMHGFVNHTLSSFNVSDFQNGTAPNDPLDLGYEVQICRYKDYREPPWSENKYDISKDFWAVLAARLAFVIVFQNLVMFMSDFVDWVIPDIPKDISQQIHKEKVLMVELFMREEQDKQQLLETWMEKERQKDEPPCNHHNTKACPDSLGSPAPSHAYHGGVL
Excerpt: HEK293 cells stably expressing the TMEM16A (acd) variant were purchased from SB Drug Discovery. The HEK293 TMEM16A (abc) stable cell line was from ChanTest and COLO-205 cells were purchased from ATCC. The same standard buffers and recording conditions listed below were used for QPatch studies on all three cell lines.
Recording Solutions: were made weekly as below and stored at room temperature until used. It is recommended not to add ATP to internal solution until immediately before using on the QPatch. The external buffer (in mM) was 140 NaCl, 4 KCl, 2 CaCl2, 1 MgCl2, 10 HEPES, 10 Glucose, pH7.4, while the internal buffer (in mM) was 110 CsCl, 20 TEA-Cl, 5.374 CaCl2, 1.75 MgCl2, 10 EGTA, 10 HEPES, 4 Na2ATP, pH 7.2.
Once established in whole-cell configuration, cells were clamped to a holding potential (Vhold) of 0 mV on 48 well single hole patch plate. A standardized IV protocol was used to elicit ionic current through the TMEM16A chloride channel at 20 s intervals. Steady-state voltage pulses were from −100 mV to +100 mV in +20 mV steps for a duration of 500 ms. After each pulse the voltage was returned to −100 mV for 50 ms to obtain tail currents, and then returned to the holding potential of 0 mV until the beginning of the next sweep. […] This ensures a minimum of 60 s per concentration incubation before measuring current block. Currents were acquired at 10 kHz and filtered at 2 kHz, leak subtraction and Rseries were disabled. A 1 MΩ minimum resistance was set because cells are held in an open channel state and therefore resistance is low.
A cumulative concentration response was measured where each cell is exposed to five concentrations of test article with a dilution factor of 1:5 (e.g., 0.048, 0.24, 1.2, 6, and 30 μM). Cells were recorded for ∼60 s per solution/compound addition. Initially, external solution is applied twice to allow currents to stabilize. Then vehicle (from the saline reservoir) is added twice to monitor any effect 0.3% DMSO might have on currents. This leads directly into the concentration runs by applying Concentration 1 (single addition) for 1 min. Concentration 2 is then applied for the subsequent minute, etc. Recovery/washout was monitored for a final minute with a final external solution addition.
[…] […] Each cell’s current magnitude was then normalized to itself at the initial 0.3% vehicle control period prior to compound application. This step is to account for differences in current size for each cell. Normalized responses to test article were plotted against their concentrations to reveal a concentration-inhibition plot.
A Normalized Group Hill fit was then performed on the plotted results to yield a pooled IC50 value, reconstructed from a minimum of two cells/concentration. The baseline response as well as the full response were constrained to 1 and 0, respectively.

[3] = supplement, maximum concentration 55.6, read-out: TMEM16A eYFP Assay IC50

T2 sequence (P13569 whole entry): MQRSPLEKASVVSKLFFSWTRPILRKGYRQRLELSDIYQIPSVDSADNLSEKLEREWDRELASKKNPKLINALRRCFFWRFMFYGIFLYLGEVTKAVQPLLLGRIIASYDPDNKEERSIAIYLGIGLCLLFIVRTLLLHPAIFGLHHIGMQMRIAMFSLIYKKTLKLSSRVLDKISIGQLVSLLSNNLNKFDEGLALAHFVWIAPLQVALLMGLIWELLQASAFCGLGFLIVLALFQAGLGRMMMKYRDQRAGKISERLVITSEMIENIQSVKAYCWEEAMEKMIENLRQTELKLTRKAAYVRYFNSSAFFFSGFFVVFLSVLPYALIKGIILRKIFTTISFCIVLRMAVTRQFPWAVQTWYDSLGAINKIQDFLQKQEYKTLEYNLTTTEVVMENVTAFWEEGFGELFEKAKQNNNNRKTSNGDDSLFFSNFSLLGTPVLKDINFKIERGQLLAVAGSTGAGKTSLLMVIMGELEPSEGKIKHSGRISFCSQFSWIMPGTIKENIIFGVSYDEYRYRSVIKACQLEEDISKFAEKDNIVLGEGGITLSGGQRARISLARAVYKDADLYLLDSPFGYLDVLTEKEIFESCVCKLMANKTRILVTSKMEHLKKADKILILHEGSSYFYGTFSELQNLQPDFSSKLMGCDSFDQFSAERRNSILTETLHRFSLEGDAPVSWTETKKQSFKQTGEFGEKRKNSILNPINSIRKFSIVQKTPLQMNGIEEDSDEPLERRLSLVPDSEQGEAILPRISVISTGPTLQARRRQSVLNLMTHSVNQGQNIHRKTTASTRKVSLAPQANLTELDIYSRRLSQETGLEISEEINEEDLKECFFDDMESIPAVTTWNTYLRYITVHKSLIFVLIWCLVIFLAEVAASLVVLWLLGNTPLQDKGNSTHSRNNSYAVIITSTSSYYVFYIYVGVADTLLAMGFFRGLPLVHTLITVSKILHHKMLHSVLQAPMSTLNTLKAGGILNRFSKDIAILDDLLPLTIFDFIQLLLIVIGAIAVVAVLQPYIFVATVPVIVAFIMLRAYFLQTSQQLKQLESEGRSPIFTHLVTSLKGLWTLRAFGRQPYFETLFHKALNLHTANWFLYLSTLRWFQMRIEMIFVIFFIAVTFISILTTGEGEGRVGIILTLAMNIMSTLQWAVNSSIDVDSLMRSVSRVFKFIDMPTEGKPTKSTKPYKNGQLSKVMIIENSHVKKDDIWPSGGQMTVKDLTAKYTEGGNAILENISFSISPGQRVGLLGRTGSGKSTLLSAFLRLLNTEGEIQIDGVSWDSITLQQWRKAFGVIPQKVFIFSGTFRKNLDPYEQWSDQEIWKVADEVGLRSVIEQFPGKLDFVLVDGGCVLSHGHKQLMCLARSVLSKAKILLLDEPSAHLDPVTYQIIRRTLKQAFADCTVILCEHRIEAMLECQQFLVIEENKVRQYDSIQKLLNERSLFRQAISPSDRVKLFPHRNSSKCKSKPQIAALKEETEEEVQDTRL

Row | Compound | IC50 [2] [nM] | IC50 (hTMEM16A (abc); [3]) [nM] | also measured
1 | O=C(Nc1ccc(Cl)cc1Cl)c1cc(Cl)ccc1O [Cpd 12] | 420 | 90 | IC50 Ratio, Wnt/TMEM16A [1]: 4.67; IC50 (hTMEM16A (abc); average, 22-point dose-response, read-out: TMEM16A eYFP Assay (IC50)): 88 nM
2 | Cc1ccc(-c2nnn(CC(=O)N(c3cccc(C(F)(F)F)c3)C(C(=O)NC(C)(C)C)c3cccs3)n2)cc1 (stereo not drawn) [compound 3179204] |  | 334 | 
3 | O=C(Nc1ccc(F)cc1F)c1cc(Cl)ccc1O [Cpd 17] | 4020 | 310 | IC50 Ratio, Wnt/TMEM16A [1]: 12.97
4 | O=C(Nc1c(Cl)cccc1Cl)c1cc(Cl)ccc1O [Cpd 15] | > 12000 |  | 
5 | CC1(C)C(O)C1C#Cc1ccccc1 (stereo not drawn) [compound 598689] |  | 466 ± 101 | 
6 | CC(C)(C)NCC(O)c1ccc(O)c(CO)c1 (stereo not drawn) [Salbutamol, salbutamol] |  |  | EC50 (human bronchial rings; Homo sapiens, 10 μM histamine, read-out: EC50 bronchodilating histamine precontracted human airways): 119 nM; time to open airways (human bronchial rings; summary): < 7 min
7 | CFTRinh-172 |  |  | effect on CFTR chloride current (human CFTR): fully inhibited
8 | CCCn1c(SCC(=O)NCC(F)(F)F)nc2ccccc2c1=O [compound 2100101] |  | 3330 | 
9 | O=C(Nc1c(F)cccc1F)c1cc(Cl)ccc1O [Cpd 18] | > 12000 | 13400 | 
10 | O=C(Nc1ccccc1C(=O)Nc1nnc(C(F)(F)F)s1)c1ccccc1Cl [CID# 2806957] |  |  | IC50 (TMEM16A (acd)): 670 nM
11 | NCCNCCNC(=O)c1cc2ccccc2cc1O [compound 111758] |  | 91 ± 28 | 
